Measurements reported in ChEMBL document CHEMBL1201862, “PubChem BioAssay data set” (2004).
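48-hour exposure; five concentrations; linearly interpolated endpoints. GI50 marks 50% less growth.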 Calls of active or inactive are those of the source. No stated cut-off is given here; in the data, active = GI50 up to about 1.1 µM and inactive = higher.

Legend:
Assay in all cases: NCI tumour cell line growth inhibition, 48 h
ACHN = system: ACHN
CCRF-CEM = system: CCRF-CEM
DU-145 = system: DU-145
HL-60 = system: HL-60
HOP-92 = system: HOP-92
Hs-578T = system: Hs-578T
M14 = system: M14
MDA-MB-231 = system: MDA-MB-231
Malme-3M = system: Malme-3M
NCI-H23 = system: NCI-H23
NCI/ADR-RES = system: NCI/ADR-RES
OVCAR-4 = system: OVCAR-4
OVCAR-5 = system: OVCAR-5
PC-3 = system: PC-3
SK-MEL-5 = system: SK-MEL-5
SK-OV-3 = system: SK-OV-3
SNB-75 = system: SNB-75
TK-10 = system: TK-10
U-251 = system: U-251
UO-31 = system: UO-31

Compound	GI50 (ACHN)	GI50 (CCRF-CEM)	GI50 (DU-145)	GI50 (HL-60)	GI50 (HOP-92)	GI50 (Hs-578T)	GI50 (M14)	GI50 (MDA-MB-231)	GI50 (Malme-3M)	GI50 (NCI-H23)	GI50 (NCI/ADR-RES)	GI50 (OVCAR-4)	GI50 (OVCAR-5)	GI50 (PC-3)	GI50 (SK-MEL-5)	GI50 (SK-OV-3)	GI50 (SNB-75)	GI50 (TK-10)	GI50 (U-251)	GI50 (UO-31)
C=C1C[C@@H](O)[C@@H](Br)C(C)(C)[C@]12CCC(C)(Cl)C(Br)C2 (stereo not given in full)	32.8 µM (inactive)	41.6 µM (inactive)	62.4 µM (inactive)	25.6 µM (inactive)	24.2 µM (inactive)	27.4 µM (inactive)	34 µM (inactive)	40.7 µM (inactive)	22 µM (inactive)	21.1 µM (inactive)	21.4 µM (inactive)	21.9 µM (inactive)	0.736 µM (active)	0.431 µM (active)	7.71 µM (inactive)	57.3 µM (inactive)	18.9 µM (inactive)	1.58 µM (inactive)	24.4 µM (inactive)	59 µM (inactive)
O=C1c2ccccc2-c2[nH]c3cn[nH]c(=O)c3c21	85.9 µM (inactive)	> 100 µM (inactive)	> 100 µM (inactive)	> 100 µM (inactive)	16.4 µM (inactive)	64.9 µM (inactive)	> 100 µM (inactive)	97.5 µM (inactive)	> 100 µM (inactive)	> 100 µM (inactive)	> 100 µM (inactive)	> 100 µM (inactive)	> 100 µM (inactive)	> 100 µM (inactive)	> 100 µM (inactive)	> 100 µM (inactive)	42.6 µM (inactive)	> 100 µM (inactive)	> 100 µM (inactive)	23.8 µM (inactive)
